Results taken from patent US20240197737A1, “APPLICATION OF COMPOUND IN PREPARATION OF INHIBITORY DRUG TARGETING ERBB2 MUTANT” (SHANGHAI PHARMACEUTICALS HOLDING CO., LTD., priority 2021, published 2024).
pIC50: −log10 of the molar value.

What was measured:
Assay in all cases: ErbB2 mutant inhibition assay (33P-ATP radiometric kinase assay, Reaction Biology)
Assay type in all cases: biochemical
[1] = biological target: T1, ErbB2 (R896C) (Homo sapiens, UniProt P04626, R896C); settings: ATP 10 μM, 20 min preincubation, 2 h reaction; read-out: Compound IC50 ErbB2 (R896C)
T1 construct: purchased Reaction Biology Corporation
T1 sequence (P04626 23-1255 R896C): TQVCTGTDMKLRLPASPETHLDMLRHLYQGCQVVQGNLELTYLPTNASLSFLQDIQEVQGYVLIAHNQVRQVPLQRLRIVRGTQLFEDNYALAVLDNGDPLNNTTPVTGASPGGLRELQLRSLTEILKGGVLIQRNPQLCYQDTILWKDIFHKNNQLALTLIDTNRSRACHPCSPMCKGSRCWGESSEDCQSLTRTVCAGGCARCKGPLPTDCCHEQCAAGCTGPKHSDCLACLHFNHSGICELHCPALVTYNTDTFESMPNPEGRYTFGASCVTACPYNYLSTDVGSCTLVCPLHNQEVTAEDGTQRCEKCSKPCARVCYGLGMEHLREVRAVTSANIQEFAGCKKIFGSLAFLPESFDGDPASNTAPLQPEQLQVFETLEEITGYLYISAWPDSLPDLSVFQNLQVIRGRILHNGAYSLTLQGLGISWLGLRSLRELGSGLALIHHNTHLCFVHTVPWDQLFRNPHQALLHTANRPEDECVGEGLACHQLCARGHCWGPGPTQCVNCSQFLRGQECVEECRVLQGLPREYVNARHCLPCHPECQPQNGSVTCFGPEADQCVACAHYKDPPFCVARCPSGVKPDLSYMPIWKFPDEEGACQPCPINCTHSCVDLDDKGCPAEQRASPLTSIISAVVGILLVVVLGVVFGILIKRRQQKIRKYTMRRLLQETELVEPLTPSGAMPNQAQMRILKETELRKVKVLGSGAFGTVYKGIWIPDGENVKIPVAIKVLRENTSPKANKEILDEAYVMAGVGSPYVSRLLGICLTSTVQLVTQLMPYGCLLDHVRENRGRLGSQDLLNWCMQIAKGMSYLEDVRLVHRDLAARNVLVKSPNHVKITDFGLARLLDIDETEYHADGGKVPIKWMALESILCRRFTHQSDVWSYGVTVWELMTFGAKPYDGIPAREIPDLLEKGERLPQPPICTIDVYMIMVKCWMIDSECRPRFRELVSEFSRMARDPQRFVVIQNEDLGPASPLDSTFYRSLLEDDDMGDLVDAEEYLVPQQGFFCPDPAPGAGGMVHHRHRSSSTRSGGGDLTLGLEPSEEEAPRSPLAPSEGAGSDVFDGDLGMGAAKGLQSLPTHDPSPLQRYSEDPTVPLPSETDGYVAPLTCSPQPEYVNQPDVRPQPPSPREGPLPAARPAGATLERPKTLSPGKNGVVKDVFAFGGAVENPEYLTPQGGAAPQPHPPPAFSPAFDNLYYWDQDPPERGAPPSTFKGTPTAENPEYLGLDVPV
Description: (§1) The reagents and materials used in the assay, as well as the testing procedure, were provided and carried out by Reaction Biology Corporation. The specific steps were as follows: • 1. […] Conditions for the enzyme reaction assay: The test compounds were incubated for 20 minutes, ATP concentration was set at 10 μM, and the total duration of the enzyme reaction was 2 hours. • 3. Experimental steps for the enzyme reaction
(§2) The enzyme reaction buffer was 20 mM HEPES at a pH of 7.5, 10 mM MgCl2, 2 mM MnCl2, 1 mM EGTA, 0.01% Brij35, 0.02 mg/mL BSA, 0.1 mM Na3VO4, 2 mM DTT, and 1% DMSO.
(§3) Kinase activity %=(Remaining kinase activity of test compound samples/Kinase activity of solvent control samples (DMSO))*100%
(§4) The IC50 of the compound was calculated by fitting the kinase activity % at different compound concentrations.

[2] = biological target: T2, ErbB2 (D769H) (Homo sapiens, UniProt P04626, D769H); settings: ATP 10 μM, 20 min preincubation, 2 h reaction; read-out: Compound IC50 ErbB2 (D769H)
T2 construct: purchased Reaction Biology Corporation
T2 sequence (P04626 23-1255 D769H): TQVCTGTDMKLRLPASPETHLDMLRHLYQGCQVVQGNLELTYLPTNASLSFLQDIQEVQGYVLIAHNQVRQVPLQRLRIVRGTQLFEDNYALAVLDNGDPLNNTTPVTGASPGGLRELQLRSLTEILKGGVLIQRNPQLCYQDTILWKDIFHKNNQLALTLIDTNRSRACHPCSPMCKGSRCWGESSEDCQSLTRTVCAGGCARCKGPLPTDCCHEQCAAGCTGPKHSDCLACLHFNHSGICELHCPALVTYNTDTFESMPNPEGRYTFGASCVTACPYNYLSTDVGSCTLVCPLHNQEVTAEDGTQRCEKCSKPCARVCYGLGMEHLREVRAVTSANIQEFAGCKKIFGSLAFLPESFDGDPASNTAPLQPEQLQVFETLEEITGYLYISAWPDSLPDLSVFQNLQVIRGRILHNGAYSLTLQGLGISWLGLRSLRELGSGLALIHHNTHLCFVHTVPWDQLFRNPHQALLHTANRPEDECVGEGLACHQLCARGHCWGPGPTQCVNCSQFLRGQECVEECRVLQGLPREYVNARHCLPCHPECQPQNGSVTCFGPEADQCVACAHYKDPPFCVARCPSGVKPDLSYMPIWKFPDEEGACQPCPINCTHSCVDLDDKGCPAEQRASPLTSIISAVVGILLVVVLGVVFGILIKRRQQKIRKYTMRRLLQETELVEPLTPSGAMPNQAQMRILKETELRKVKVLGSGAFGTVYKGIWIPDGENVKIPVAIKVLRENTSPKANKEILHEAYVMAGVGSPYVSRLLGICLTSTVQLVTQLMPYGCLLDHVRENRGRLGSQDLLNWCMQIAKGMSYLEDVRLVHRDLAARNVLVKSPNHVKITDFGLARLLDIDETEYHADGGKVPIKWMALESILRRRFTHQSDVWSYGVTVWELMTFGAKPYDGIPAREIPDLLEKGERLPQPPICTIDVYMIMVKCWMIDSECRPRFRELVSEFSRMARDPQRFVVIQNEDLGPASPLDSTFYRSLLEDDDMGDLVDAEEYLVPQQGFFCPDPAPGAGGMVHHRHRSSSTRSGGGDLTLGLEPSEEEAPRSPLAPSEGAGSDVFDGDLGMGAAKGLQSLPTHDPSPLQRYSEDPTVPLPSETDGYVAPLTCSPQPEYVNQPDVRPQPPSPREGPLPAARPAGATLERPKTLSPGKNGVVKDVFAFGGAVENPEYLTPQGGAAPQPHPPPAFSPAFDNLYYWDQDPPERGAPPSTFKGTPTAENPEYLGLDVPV
Description: as §1, §2, §3, §4

[3] = biological target: T3, ErbB2 (V777L) (Homo sapiens, UniProt P04626, V777L); settings: ATP 10 μM, 20 min preincubation, 2 h reaction; read-out: Compound IC50 ErbB2 (V777L)
T3 construct: purchased Reaction Biology Corporation
T3 sequence (P04626 23-1255 V777L): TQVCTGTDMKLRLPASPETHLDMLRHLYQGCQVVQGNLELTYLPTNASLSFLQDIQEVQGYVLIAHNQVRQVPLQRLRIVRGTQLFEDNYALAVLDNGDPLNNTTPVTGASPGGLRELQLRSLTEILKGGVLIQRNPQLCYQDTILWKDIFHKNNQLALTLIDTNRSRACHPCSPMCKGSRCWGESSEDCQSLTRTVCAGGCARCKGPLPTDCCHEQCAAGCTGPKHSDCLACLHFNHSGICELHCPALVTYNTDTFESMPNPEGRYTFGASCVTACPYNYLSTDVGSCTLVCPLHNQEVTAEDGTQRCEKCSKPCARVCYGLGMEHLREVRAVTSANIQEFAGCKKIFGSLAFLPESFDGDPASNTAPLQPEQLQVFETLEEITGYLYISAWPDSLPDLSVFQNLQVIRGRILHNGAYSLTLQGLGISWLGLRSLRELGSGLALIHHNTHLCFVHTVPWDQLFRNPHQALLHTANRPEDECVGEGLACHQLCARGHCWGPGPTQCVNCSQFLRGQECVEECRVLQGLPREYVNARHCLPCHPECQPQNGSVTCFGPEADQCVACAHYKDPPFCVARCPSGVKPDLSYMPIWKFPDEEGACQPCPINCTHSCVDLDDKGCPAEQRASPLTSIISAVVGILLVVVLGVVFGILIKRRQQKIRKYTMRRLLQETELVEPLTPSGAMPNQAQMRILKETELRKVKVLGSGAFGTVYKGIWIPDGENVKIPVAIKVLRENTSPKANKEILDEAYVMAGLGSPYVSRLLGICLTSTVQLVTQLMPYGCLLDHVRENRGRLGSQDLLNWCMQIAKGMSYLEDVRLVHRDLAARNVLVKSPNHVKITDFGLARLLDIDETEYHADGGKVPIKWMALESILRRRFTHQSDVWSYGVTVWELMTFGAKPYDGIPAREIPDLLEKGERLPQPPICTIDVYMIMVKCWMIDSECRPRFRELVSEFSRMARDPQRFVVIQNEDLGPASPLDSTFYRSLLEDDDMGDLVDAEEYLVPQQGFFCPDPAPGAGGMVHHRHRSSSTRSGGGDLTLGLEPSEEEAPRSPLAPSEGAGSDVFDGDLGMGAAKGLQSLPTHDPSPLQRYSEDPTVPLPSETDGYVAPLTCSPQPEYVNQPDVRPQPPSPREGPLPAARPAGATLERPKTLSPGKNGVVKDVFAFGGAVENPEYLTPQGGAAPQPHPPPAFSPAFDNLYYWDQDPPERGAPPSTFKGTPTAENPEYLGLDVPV
Description: as §1, §2, §3, §4

[4] = biological target: T4, ErbB2 (D769Y) (Homo sapiens, UniProt P04626, D769Y); settings: ATP 10 μM, 20 min preincubation, 2 h reaction; read-out: Compound IC50 ErbB2 (D769Y)
T4 construct: purchased Reaction Biology Corporation
T4 sequence (P04626 23-1255 D769Y): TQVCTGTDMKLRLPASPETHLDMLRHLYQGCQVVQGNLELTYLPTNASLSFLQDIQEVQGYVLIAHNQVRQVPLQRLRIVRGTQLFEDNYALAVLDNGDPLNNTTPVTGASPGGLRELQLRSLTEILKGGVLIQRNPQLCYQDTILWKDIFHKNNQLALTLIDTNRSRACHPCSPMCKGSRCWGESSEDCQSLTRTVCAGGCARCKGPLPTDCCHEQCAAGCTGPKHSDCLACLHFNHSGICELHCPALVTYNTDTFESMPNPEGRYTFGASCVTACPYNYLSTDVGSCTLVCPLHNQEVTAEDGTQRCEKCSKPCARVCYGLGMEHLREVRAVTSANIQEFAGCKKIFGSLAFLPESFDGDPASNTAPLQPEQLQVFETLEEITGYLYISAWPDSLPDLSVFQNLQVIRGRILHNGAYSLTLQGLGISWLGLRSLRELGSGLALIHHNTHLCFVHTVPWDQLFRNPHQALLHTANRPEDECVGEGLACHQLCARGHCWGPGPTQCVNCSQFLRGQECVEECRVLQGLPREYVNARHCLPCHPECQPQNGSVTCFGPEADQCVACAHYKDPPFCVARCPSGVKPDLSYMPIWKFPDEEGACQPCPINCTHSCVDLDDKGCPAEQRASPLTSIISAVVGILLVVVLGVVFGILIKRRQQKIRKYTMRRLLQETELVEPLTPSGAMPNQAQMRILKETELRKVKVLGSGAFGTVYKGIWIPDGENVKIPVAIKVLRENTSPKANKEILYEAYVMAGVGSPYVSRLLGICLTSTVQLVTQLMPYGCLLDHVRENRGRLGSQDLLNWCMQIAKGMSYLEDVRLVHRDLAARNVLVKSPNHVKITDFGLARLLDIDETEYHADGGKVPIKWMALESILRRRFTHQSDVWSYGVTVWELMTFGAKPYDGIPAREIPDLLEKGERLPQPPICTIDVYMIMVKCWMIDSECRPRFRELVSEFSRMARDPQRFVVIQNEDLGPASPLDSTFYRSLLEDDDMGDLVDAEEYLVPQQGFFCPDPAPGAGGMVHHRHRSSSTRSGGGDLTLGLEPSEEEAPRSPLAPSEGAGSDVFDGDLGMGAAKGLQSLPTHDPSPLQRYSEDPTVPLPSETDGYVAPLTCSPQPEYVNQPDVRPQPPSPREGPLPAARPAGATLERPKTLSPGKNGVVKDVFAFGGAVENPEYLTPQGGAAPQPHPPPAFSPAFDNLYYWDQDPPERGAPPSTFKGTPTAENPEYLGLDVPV
Description: as §1, §2, §3, §4

Compound | pIC50 [1] | pIC50 [2] | pIC50 [3] | pIC50 [4]
Cc1cc(Nc2ncnc3ccc(NC(=O)/C=C/[C@H]4CCCN4C)cc23)ccc1Oc1ccc2nccn2n1 | 8.43 | 8.04 | 7.83 | 7.41
Cc1cc(Nc2ncnc3ccc(NC(=O)/C=C/[C@H]4CCCN4C)cc23)ccc1Oc1ccn2ccnc2c1 | 9.42 | > 9.82 | > 9.82 | 9.61
Cc1cc(Nc2ncnc3ccc(NC(=O)/C=C/[C@H]4CCCN4C)cc23)ccc1Oc1ccn2cnnc2c1 | 9.72 | 9.60 | 9.20 | 8.70
Cc1cc(Nc2ncnc3ccc(NC(=O)/C=C/[C@H]4CCCN4C)cc23)ccc1Oc1cnc2ccnn2c1 | 9.47 | > 9.82 | 9.55 | 9.22
Cc1cc(Nc2ncnc3ccc(NC(=O)/C=C/[C@H]4CCCN4)cc23)ccc1Oc1ccn2ncnc2c1 | 9.00 | 9.49 | 9.73 | 9.61
Cc1cc(Nc2ncnc3ccc(NC(=O)/C=C/[C@H]4CCCN4C)cc23)ccc1Oc1cc2nccn2cn1 | 9.13 | 9.55 | 9.65 | 9.67
Cc1cc(Nc2ncnc3ccc(NC(=O)/C=C/[C@H]4CCCN4)cc23)ccc1Oc1cc2nncn2cn1 | 8.95 | 9.37 | 9.45 | 9.61
Cc1cc(Nc2ncnc3ccc(NC(=O)/C=C/[C@@H]4CCCN4C)cc23)ccc1Oc1cc2nncn2cn1 | 9.10 | 9.26 | 9.79 | 8.84
CN1CCC[C@@H]1/C=C/C(=O)Nc1ccc2ncnc(Nc3ccc(Oc4cc5nncn5cn4)c(Cl)c3)c2c1 | 9.73 | > 9.82 | > 9.82 | > 9.82
COCCOc1cc2ncnc(Nc3ccc(Oc4cc5nncn5cn4)c(C)c3)c2cc1NC(=O)/C=C/[C@H]1CCCN1C | 9.22 | 9.62 | > 9.82 | > 9.82
